From patent publication US20050033056A1, “Hydroxylated indole derivatives and uses thereof” (priority 2001, published 2005)

Target: T1, CYP1A2 (Homo sapiens, UniProt P05177)
T1 construct: tissue Gentest Corp. (Woburn, Mass.); host or cells: pooled human liver microsomes
T1 sequence (P05177 1-516): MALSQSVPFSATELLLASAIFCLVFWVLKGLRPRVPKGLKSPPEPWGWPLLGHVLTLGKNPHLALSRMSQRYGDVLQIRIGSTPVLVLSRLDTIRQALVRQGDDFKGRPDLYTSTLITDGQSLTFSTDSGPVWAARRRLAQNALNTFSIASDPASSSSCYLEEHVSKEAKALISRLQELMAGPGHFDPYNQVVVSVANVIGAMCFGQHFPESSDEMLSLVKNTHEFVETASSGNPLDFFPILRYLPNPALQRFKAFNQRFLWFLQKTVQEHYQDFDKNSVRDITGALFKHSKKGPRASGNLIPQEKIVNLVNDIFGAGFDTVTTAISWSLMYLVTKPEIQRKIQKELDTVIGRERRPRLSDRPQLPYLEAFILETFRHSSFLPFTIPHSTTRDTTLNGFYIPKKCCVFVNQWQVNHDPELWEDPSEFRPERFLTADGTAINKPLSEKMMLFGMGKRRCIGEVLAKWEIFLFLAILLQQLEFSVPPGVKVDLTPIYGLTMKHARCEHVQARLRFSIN
Assay: CYP inhibition in HLM: R-warfarin 6-hydroxylation
Type: in vitro ADME
Details: 10 or 50 μM
Experimental: The incubations were carried out in test tubes (12.0×75 mm). The incubation mixtures (250 μL) contained 0.5 mg of HLM protein, 50 (CYP1A2 and CYP2E1) or 25 (CYP2C9, CYP2C19, CYP2D6 and CYP3A4) pmol of recombinant human CYPs, Compound 1 (10 or 50 μM), probe substrate (R—, S-warfarin, chlorzoxazone, S-mephenyloin, or bufuralol) at different concentrations, and 0.5 mg of NADPH in 50 mM Tris buffer containing 15 mM MgCl2 (pH 7.4). Compound 1 was added to the reaction mixture 5 minutes prior to the addition of the probe substrate. […]
The quantification was based on the calibration curves, and the quality control (QC) samples were applied to ensure the quality of the experiments. […]
1. CYP1A2/2C9/3A4-mediated warfarin 6-, 7-, 8-, and 10-hydroxylation (Zhang et al., Drug Metab. Dispos. 23:1339-1346, 1995; Rettie et al., Chem. Res. Toxicol. 5:54-59, 1992; Brian et al., Biochemistry 29:11280-11292, 1990): Hewlett Packard 1100 HPLC system (Waldbronn, Germany) comprised a binary pump, an autosampler, a column compartment unit, a photodiode array detector (PDA), and a fluorescence detector. […] The warfarin metabolites, 6-, 8-, and 10-hydroxywarfarin, were monitored by UV at 313 nm, and 7-hydroxywarfarin by fluorescence at Ex320 nm/Em380 nm. […]

For `CNC(=O)Cc1ccc2ccn(C3CCN(CCc4ccccc4F)CC3)c2c1` [Compound 1, N-methyl-[1-[1-(2-fluorophenethyl)piperidine-4-yl]-1H-indol-6-yl] acetamide], the “inhibitory effect on CYP1A2 activity (in words)” value was “no inhibitory effect”.
